Experimental data reported in US20220119375A1, “3-ARYLOXY-3-ARYL-PROPYLAMINE COMPOUND AND USES THEREOF” (Zhangzhou Pien Tze Huang Pharmaceutical Co., Ltd., priority 2018, published 2022).
Where two headings read alike, the source gives them in different places.

Assays:
TRPA1 = target: T1, TRPA1 (Mus musculus, UniProt Q8BLA8); experiment: IonWorks Barracuda (IWB) automated patch clamp detection of TRPA1 inhibitory activity; format: cell-based, mouse (mTRPA1); conditions: for IC50: automated patch clamp (IWB)
T1 construct: expressed in transfected cells; host or cells: HEK293
T1 sequence (Q8BLA8 whole entry): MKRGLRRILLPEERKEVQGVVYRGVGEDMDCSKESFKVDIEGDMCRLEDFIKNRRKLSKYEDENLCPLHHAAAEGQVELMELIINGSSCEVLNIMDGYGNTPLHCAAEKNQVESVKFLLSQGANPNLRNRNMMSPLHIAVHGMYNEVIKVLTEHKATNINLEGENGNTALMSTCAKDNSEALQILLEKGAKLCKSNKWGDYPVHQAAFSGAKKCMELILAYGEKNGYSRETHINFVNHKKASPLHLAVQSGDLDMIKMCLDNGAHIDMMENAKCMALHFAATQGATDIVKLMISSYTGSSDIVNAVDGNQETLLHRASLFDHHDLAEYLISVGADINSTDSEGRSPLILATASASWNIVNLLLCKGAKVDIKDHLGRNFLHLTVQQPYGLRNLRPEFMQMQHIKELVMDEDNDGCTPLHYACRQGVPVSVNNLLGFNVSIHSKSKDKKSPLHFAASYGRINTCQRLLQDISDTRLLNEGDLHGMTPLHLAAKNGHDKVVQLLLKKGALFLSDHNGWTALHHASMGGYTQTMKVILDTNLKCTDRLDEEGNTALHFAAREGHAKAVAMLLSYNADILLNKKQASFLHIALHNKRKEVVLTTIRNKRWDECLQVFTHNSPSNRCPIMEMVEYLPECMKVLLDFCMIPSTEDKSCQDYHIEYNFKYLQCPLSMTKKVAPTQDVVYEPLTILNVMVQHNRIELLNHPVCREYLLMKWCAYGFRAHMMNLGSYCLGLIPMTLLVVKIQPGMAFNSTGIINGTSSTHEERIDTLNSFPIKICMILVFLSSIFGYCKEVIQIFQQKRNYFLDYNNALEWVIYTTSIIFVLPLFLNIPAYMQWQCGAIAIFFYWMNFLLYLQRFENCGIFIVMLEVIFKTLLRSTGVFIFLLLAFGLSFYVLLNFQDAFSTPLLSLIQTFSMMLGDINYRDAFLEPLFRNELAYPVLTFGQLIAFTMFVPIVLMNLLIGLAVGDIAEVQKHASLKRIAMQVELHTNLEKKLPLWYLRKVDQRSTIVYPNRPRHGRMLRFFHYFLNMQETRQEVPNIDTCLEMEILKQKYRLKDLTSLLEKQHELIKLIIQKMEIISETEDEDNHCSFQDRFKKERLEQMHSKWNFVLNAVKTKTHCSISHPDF
Protocol: The inhibitory activity of some compounds in the Examples of present invention on transient receptor potential channel protein TRPA1 was tested in this example. The compound of formula A (WO2010075353) was used as a positive control compound: […]
IonWorks Barracuda (IWB) automated patch clamp detection was used as test method: HEK293 cells stably expressing TRPA1 were placed in DMEM medium containing 15 μg/mL Blasticidin S HCl, 200 μg/mL Hygromycin B and 10% FBS in the T175 culture flask, and cultured in 37° C., 5% CO2 incubator. When the cell density reached about 80%, the culture medium was removed, rinsed with phosphate buffered saline (PBS) without calcium and magnesium. 3 mL of Trypsin was added to digest for 2 min, 7 mL of culture medium was added to terminate the digestion. The cells were collected to 15 mL centrifuge tube and centrifuged at 800 rpm for 3 min. After the supernatant was removed, the cells were added to appropriate volume of extracellular fluid for re-suspending, and the cell density was controlled at 2-3×10^6/mL for IWB experiment. Extracellular fluid formulation (in mM): 140 NaCl, 5 KCl, 1 MgCl2, 10 HEPES, 0.5 EGTA, 10 Glucose (pH 7.4); intracellular fluid formulation (in mM): 140 CsCl, 10 HEPES, 5 EGTA, 0.1 CaCl2, 1 MgCl2 (pH 7.2). 28 mg/mL of amphotericin B was freshly prepared with DMSO on the day of experiment, and then final concentration of 0.1 mg/mL was prepared with intracellular fluid.
Population patch clamp (PPC) plate was used in IWB experiment. The entire detection process was automatically carried out by the instrument. Extracellular fluid was added into 384 wells of PPC plate, and 6 µL of the intracellular fluid was added into plenum (under the PPC plate), 6 µL of cell fluid was added for sealing test, and finally the intracellular fluid in plenum was replaced with amphotericin B-containing intracellular fluid to establish a whole-cell recording mode after perforating sealed cells. The sampling frequency for recording TPRA1 current was 10 kHz, the cells were clamped at 0 mV, the voltage stimulation command (channel protocol) was a ramp voltage from −100 mV to +100 mV for 300 ms. This voltage stimulation was applied every 10 s, mTRPA1 current was induced by 300 µM AITC.
Data recording and current amplitude measurement export were carried out by IWB software (version 2.5.3, Molecular Devices Corporation, Union City, Calif.). No statistics was recorded for holes with sealing impedance lower than 20 MΩ. The original current data was corrected by software for leakage reduction. TRPA1 current amplitude was measured at +100 mV. […] If IC50 value of HC030031 exceeded 3 times the average IC50 value previously obtained on each plate, it would be re-tested. The dose-effect curve of compounds and IC50 were fitted and calculated by GraphPad Prism 5.02 (GraphPad Software, San Diego, Calif.).

[1] = system: ICR mice, acetic acid writhing pain model; experiment: mice acetic acid writhing pain model; format: in vivo, mouse; conditions: 10 mg/kg by gavage, within 30 min; saline group 49 times
Protocol: Male ICR mice, weighed 22-25 g, were fasted but allowed to drink water freely for 2 h before administration. All ICR mice were weighed and grouped randomly, and the number of animals in each group was >10. […] The test compound was IC-1 (the compound prepared in Example 9), and the administration dosages were 5 mg/kg and 10 mg/kg. […] When concave abdomen, stretched trunk and hind claw, and high buttocks appeared, one number point was recorded. […] After administration, the fewer visceral pains in the mice were, the stronger the analgesic effect of the compound was.

[2] = system: C57BL/6 mice, formalin pain model; experiment: mice formalin pain model (Example 44); format: in vivo, mouse; conditions: 20 mg/kg intraperitoneal, phase I (0-10 min) and phase II (10-60 min), vs saline group
Protocol: Before the start of experiment, the mice were allowed to adapt to the experimental environment for 72 h without fasting. The test drug was administrated by intraperitoneal injection at a dose of 20 mg/kg, and then the mice were placed in a transparent, ventilated plexiglass cylinder for 1 h, and then 20 μl of 4% formalin solution was injected into the left hind plantar of mice of each group by microinjector. The claw pain response of mice was real-time recorded by miniature camera. The number of times of lifting (1 min/time), shaking (2 min/time), and licking (3 min/time) left claw and the time length of licking left claw were used as indicators of pain response, the cumulative scoring and licking time in two stages of 0-10 min (phase I, acute pain phase) and 10-60 min (phase II, inflammatory pain phase) were observed and recorded, and the statistical analysis was conducted.

human TRPA1 channel = target: T2, human TRPA1 channel (Homo sapiens, UniProt O75762); experiment: manual patch clamp detection of TRPA1 inhibitory activity; format: cell-based
T2 construct: expressed in transfected cells; host or cells: HEK293
T2 sequence (O75762 whole entry): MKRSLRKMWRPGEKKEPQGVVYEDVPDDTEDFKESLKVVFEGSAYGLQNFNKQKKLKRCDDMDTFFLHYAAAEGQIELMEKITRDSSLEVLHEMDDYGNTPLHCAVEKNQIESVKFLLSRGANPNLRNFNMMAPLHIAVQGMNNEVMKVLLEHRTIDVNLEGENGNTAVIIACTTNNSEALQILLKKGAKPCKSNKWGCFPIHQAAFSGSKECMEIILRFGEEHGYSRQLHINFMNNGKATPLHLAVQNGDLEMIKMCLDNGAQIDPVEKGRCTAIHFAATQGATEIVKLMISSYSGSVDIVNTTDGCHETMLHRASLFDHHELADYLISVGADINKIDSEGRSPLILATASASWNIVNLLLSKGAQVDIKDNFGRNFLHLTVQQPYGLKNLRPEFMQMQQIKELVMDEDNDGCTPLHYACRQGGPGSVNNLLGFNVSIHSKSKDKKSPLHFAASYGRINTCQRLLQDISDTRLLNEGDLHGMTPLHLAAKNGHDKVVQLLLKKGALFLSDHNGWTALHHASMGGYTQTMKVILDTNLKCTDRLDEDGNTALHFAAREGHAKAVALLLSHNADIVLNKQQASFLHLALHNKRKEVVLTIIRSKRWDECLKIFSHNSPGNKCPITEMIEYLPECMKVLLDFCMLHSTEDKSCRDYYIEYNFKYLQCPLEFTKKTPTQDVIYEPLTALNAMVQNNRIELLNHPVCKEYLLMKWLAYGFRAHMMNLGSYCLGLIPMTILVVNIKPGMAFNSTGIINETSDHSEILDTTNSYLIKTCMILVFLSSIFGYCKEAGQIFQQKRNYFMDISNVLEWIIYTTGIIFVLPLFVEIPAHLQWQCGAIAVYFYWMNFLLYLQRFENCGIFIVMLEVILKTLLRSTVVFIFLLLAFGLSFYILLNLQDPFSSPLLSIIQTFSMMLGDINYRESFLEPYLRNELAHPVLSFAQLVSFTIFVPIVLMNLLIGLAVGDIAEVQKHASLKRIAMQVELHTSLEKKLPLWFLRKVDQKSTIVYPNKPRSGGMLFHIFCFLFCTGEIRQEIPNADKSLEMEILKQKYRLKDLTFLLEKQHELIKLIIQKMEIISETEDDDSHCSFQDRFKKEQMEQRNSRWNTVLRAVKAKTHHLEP
Protocol: The HEK293 cell line stably expressing human TRPA1 channel was placed in T75 culture flask with DMEM medium containing 15 μg/mL Blasticidin S HCl, 200 μg/mL Hygromycin B and 10% FBS, and cultured in incubator at 37° C. and 5% CO2. When the cell density reached about 80%, the culture medium was removed, the residue was rinsed with phosphate buffered saline (PBS) without calcium and magnesium. 2 mL of trypsin was added to digest for 2 minutes, and 8 mL of culture medium was added to terminate the digestion. The cells were collected to 15 mL centrifuge tube and centrifuged at 800 rpm for 3 min. After the supernatant was removed, an appropriate volume of extracellular fluid was added to re-suspend the cells.
In manual patch clamp detection, HEKA system (Patch Master software) was used together with EPC-10 amplifier to record the whole cell current of TRPA1 stably transfected cell line at room temperature. intracellular fluid formulation for whole cell recording was as follows (mM): 140 CsCl, 10 HEPES, 5 EGTA, 0.1 CaCl2, 1 MgCl2 (pH 7.2, osmotic pressure 295-300 mOsm); Ca^2+-free extracellular fluid formulation for recording was as follows (mM): 140 NaCl, 5 KCl, 0.5 EGTA, 1 MgCl2, 10 Glucose, 10 HEPES (pH 7.4, osmotic pressure 300-310 mOsm). Glass microelectrode resistance used for patch clamp recording was 2-4 MΩ, the sampling frequency was 10 kHz, the filter frequency was 2.9 kHz, the cell clamp was 0 mV, and the voltage stimulation command (channel protocol) was a linear voltage from −100 mV to +100 mV for 300 ms, then restored to 0 mV clamping potential. The recording was performed every 2 s. The hTRPA1 current was induced by 100 μM AITC. To ensure the accuracy of current recording, the series resistance was used for 60% compensation during recording.
Data recording and current amplitude measurement export were completed by Patch Master software. Cells with sealing impedance lower than 500 MΩ, w were not included in the statistics. The original current data were corrected by software for leakage reduction, and the hTRPA1 current amplitude was measured at +100 mV. The compound dose-effect curve and IC50 were fitted and calculated by GraphPad Prism 5.02 (GraphPad Software, San Diego, Calif.).

[3] = system: C57 mice, hot plate pain model; experiment: mice hot plate pain model; format: in vivo, mouse; conditions: 10 mg/kg intraperitoneal, hot plate 55±0.1° C., within 60 minutes
Protocol: SPF-grade C57 male mice were placed at hot plate with constant 55±0.1° C. […] If the pain reaction of mice was observed, the mice were taken out immediately to prevent mice from scalding. […] The test compounds were freshly prepared on the day of administration. 0.9% NaCl physiological saline solution was prepared as solvent for later use. Appropriate amount of test compounds were added into required volume of physiological saline and fully suspended, and the concentration of the drug compound in preparation was 1 mg/ml. The standard volume of administration to mice was 10 ml/kg (or 0.1 ml/10 g). […] The administration volume was 10 ml/kg. […] Hot plate observation index: the reaction time of mice on the hot plate at 55±0.1° C. (Time latency). Measurement and recording were conducted at 3 h before administration and 15 min, 30 min, and 60 min after administration. Maximum possible effect (MPE) % was used to evaluate analgesic effect of each compound, i.e., MPE %=[(Post drug latency-baseline latency)/(30-baseline latency)]×100. MPE % at different time points was recorded. The higher the value of MPE % was, the stronger the analgesic effect of the compound was.

[4] = HEK293 cells stably expressing TRPA1, AITC-induced current at +100 mV, read-out: IC50 (μM) on TRPA1 in the patch clamp detection test

SMILES	IC50 (TRPA1; [4]) [µM]	IC50 (TRPA1; read-out: IC50 on TRPA1) [µM]	other results
CN(C)CC[C@H](Oc1cccc2ccoc12)c1cccs1 [Compound IC-8, (S)-3-(benzofuran-7-yloxy)-N,N-dimethyl-3-(thiophen-2-yl)propyl-1-amine]	1 to 5	< 5	
NCC[C@H](Oc1cccc2ccoc12)c1ccsc1 [Compound IC-26, (S)-3(benzofuran-7-yloxy)-3-(thiophen-3-yl) propyl-1-amine]	5 to 10		
NCC[C@H](Oc1cccc2ccoc12)c1ccoc1 [Compound IC-24, (S)-3-(benzofuran-7-yloxy)-3-(furan-3-yl)propyl-1-amine]	1 to 5	< 5	
COc1ccc2c(c1)c(CC(=O)O)c(C)n2C(=O)c1ccc(Cl)cc1 [indomethacin, reference compound]			number of appearance of writhing reaction [1]: 28 times
CNCC[C@H](Oc1cccc2ccoc12)c1cnco1 [Compound IC-29, (S)-3-(benzofuran-7-yloxy)-N-methyl-3-(oxazol-5-yl)propyl-1-amine]	5 to 10		
CNCC[C@H](Oc1cccc2c1CCC2)c1cccs1 [Compound IC-10, (S)-3-(2,3-dihydro-1H-inden-4-yloxy)-N-methyl-3-(2-thienyl)propyl-1-amine]	5 to 10		analgesic activity, licking time [2]: almost completely inhibited licking claw behavior caused by pain; IC50 (human TRPA1 channel; HEK293 stably expressing human TRPA1, 100 μM AITC, +100 mV): 1.12 µM; ratio of IC50 of S configuration of duloxetine to IC50 of the compound, manual patch clamp (human TRPA1 channel; manual patch clamp): 3.9; the IC50 of compound C1/the IC50 of compound IC-10 (TRPA1; TRPA1, automated patch clamp): about 2.5 fold; analgesic effect (MPE %) on hot plate [3]: stronger than those of gabapentin and duloxetine
CNCC[C@H](Oc1cccc2ccoc12)c1ccsc1 [Compound IC-2, (S)-3-(benzofuran-7-yloxy)-N-methyl-3-(thiophen-3-yl)propyl-1-amine]	5 to 10		
NCC[C@H](Oc1cccc2ccoc12)c1cccs1 [Compound IC-23, (S)-3-(benzofuran-7-yloxy)-3-(thiophen-2-yl) propyl-1-amine]	1 to 5	< 5	analgesic effect (MPE %) on hot plate [3]: very potent analgesic effect
CN1[C@H]2C[C@H](OC(=O)[C@H](CO)c3ccccc3)C[C@@H]1[C@@H](O)C2 [anisodamine, reference compound]			number of appearance of writhing reaction [1]: 27 times
CNCC[C@H](Oc1cccc2ccoc12)c1ccco1 [Compound IC-4, (S)-3-(benzofuran-7-yloxy)-N-methyl-3-(furan-2-yl)propyl-1-amine]	1 to 5	< 5	
CNCC[C@H](Oc1cccc2ccoc12)c1ccoc1 [Compound IC-3, (S)-3-(benzofuran-7-yloxy)-N-methyl-3-(furan-3-yl)propyl-1-amine]	1 to 5	< 5	
NCC[C@H](Oc1cccc2ccoc12)c1ccco1 [Compound IC-25, (S)-3-(benzofuran-7-yloxy)-3-(furan-2-yl) propyl-1-amine]	1 to 5		
CNCC[C@H](Oc1cccc2ccccc12)c1cccs1 [Duloxetine (R configuration), Duloxetine, reference compound]	20 to 50	48.5	
